Test results published in patent publication US9976183B2, “Biomarkers for cancers responsive to modulators of HEC1 activity” (TAIVEX THERAPEUTICS CORPORATION, priority 2011, dated 2018).

Assays:
Assay type in all cases: cell-based
[1] = system: apoptotic caspases in drug-responsive cells (HeLa); test: Immunoblot of apoptotic and anti-apoptotic markers; conditions: immunoblot (FIG. 5B, FIG. 5D)
Experimental: (§1) Immunoblots: Cell lysates were by incubation of cells in radioimmunoprecipitation assay (RIPA) buffer (50 mM Tris-HCl, pH7.4, 150 mM NaCl, 1% NP40, 0.25% DOC, 0.1% SDS, 1 mM NaVO4, 1 mM EDTA, 1 ug/ml leupeptin, 1 μg/ml pepstatin) or 2.5× sample buffer (50 mM Tris-HCl, pH6.8, 1% SDS, 2.5% BME, 7.5% Glycerol, Bromophenol blue). Tissue samples were immersed in RIPA buffer, disrupted with a homogenizer, and centrifuged to clarify. Samples were then subjected to SDS-PAGE, blotted onto immunoblotting membranes, and incubated with primary antibodies in 3% BSA-TBST. Horseradish peroxidase—conjugated secondary antibodies were used for protein detection by enhanced chemiluminescence (Millipore, Billerica, Mass. 01821 USA). The following antibodies were used for Western blotting: anti-Rb monoclonal antibody 1F8 (Abcam, Cambridge, Mass. 02139-1517 USA); anti-p53 monoclonal antibody (Santa Cruz Biotechnology, Santa Cruz, Calif. 95060 USA); anti-β-actin monoclonal antibody AC-15 (Sigma Aldrich, St. Louis, Mo., USA).

[2] = system: apoptotic caspases in resistant cell line (A549); test: Immunoblot of apoptotic and anti-apoptotic markers; conditions: A549, immunoblot (FIG. 5C, FIG. 5D)
Experimental: as §1

K562R = test: Synergy of Hec1 inhibitor with cytotoxic drug (combination index, MTS); conditions: in combination with paclitaxel
Experimental: (§2) Synergy: GI50s for selected drugs were determined and used to calculate a concentration ratio for use synergy assays with Hec1 inhibitors. Cells were treated with drugs 24 hours after being seeded in appropriate seeding numbers into 96 well plates containing low glucose DME with 10% FBS. […] Cell viability was determined by MTS assay using a CellTiter 96® Aqueous non-radioactive cell proliferation assay system (Promega, Madison, Wis. 53711 USA) according to the manufacturer's instructions. Optical density was determined using a Bio-Tek 340 spectrophotometer (Bio-Tek, Winooski, Vt. 05404) and were then processed using Excel (Microsoft, Redmond, Wash. 98052-7329) and GraphPad Prism 5 linear regression software (GraphPad Software, La Jolla, Calif. 92037 USA) to determine concentration-response curves for calculating relative GI50s. Synergy was determined by calculating a combination index value using the formula CI (combination index)=(CA,X/ICx,A)+(CB,X/ICx,B), where CA,X and CB,X are the concentrations of drug A and drug B used in combination to achieve x % drug effect. ICx,A and ICx,B are the concentrations for single agents to achieve the same effect.
(§3) Drugs that can target pathways unreached by other current anti-cancer drugs have even better clinical potential to be incorporated into current therapeutic regimens. […] Hec1 inhibitor-responsive cancer cells used for screening were treated with a mixture of Hec1 inhibitor and select anti-cancer drug at appropriate concentration ratios and evaluated for cell viability. […] Table 9 summarizes the results of synergism studies on a number of cancer derived cell lines treated with Hec1 inhibitor 110001 in combination cytotoxic drugs.

MEX-SA/Dx5 = test: as above; conditions: in combination with paclitaxel
Experimental: as §2, §3

NCI/ADR-RES = test: as above; conditions: in combination with paclitaxel
Experimental: as §2, §3

[3] = system: phosphorylated p73 in HeLa and A549 cells; test: Immunoblots for phosphorylated p73
Experimental: as §1
P73 is a member of the p53-family that mediates apoptosis and replaces p53 function in p53-deficient cells. […] To investigate this, drug-responsive (HeLa) and drug-resistant cells (A549) carrying mutant p53 proteins were treated with Hec1 inhibitor 110095 for varying lengths of time.

[4] = system: Nek2 in resistant cell line (A549); test: Nek2 expression by immunoblotting; conditions: A549, 48 hours, immunoblot (FIG. 6B)
Experimental: as §1
(§4) To investigate this possibility, drug-responsive (HeLa, MDA-MB-468, HCT116) and resistant cells (A549) were synchronized by starvation and expression of Hec1 and Nek2 characterized at 1(G1), 27(G27), 32(G32), and 48(G48) hours. Differential expression patterns between Hec1 and Nek2 are apparent, indicating differences in regulation of Hec1/Nek2 pathways (FIG. 6A). […]

[5] = system: Nek2 in sensitive cell lines (HeLa, HCT116); test: Nek2 expression by immunoblotting; conditions: 48 hours, immunoblot (FIG. 6B)
Experimental: as §1, §4

SMILES | activation of apoptotic caspases [1] | activation of apoptotic caspases [2] | Combination Index (K562R) | Synergy (K562R) | Combination Index (MEX-SA/Dx5) | Synergy (MEX-SA/Dx5) | Combination Index (NCI/ADR-RES) | Synergy (NCI/ADR-RES) | time of peak p73 phosphorylation after drug treatment ([3]; immunoblot (FIG. 5A)) | phosphorylation of p73 ([3]; immunoblot, treated for varying lengths of time, 200 nM (FIG. 5A)) | Nek2 expression [4] | Nek2 expression [5]
COc1ccc(Oc2cc(C)c(-c3csc(NC(=O)c4ccncc4)n3)c(C)c2)cc1 [compound 101001, N-(4-(4-(4-methoxyphenoxy)-2,6-dimethylphenyl)thiazol-2-yl)isonicotinamide] | activation of apoptotic caspases | did not show a similar response |  |  |  |  |  |  |  |  |  | 
COCCOc1cnc(Sc2cc(C)c(-c3csc(NC(=O)c4ccncc4)n3)c(C)c2)cn1 [compound 110095, N-(4-(4-(5-(2-methoxyethoxy)pyrazin-2-ylthio)-2,6-dimethylphenyl)thiazol-2-yl)isonicotinamide] |  |  | 0.65 | Yes | 1.41 | No | 0.82 | Yes | 48 h | induced time-dependent phosphorylation of p73 | this effect is not seen | degradation of Nek2
